# From publication PMC7462607 (eLife, 2020)
# Target: T1, CDK12/CCNK with DDB1-CUL4-RBX1 (Homo sapiens, UniProt Q9NYV4)
# T1 construct: made in house; host or cells: 293F cells (CDK12/CCNK, UBA1, UBE2G1, UBE2D3, CUL4A/RBX1); Sf9 (His-DDB1); E. coli BL21(DE3) (His-ubiquitin)
# Assay: In vitro ubiquitination of CCNK
# Type: biochemical
# Details: E1, E2, E3 and HQ461 present
# Experimental: Human Ubiquitin ORF was cloned into pET28a vector with an N-terminal 6xHis tag. The resulting pET28a-6xHis-Ub plasmid was transformed into the E. coli strain BL21 (DE3) and grown at 37°C until OD600 reached ~0.8. His-Ub expression was induced overnight by 0.5 mM IPTG at 18°C. Cells were collected by centrifugation at 4000 g and resuspended with lysis buffer containing 50 mM Tris-HCl, pH 7.5, 500 mM NaCl, 20 mM imidazole, 5% glycerol. Cell lysis was performed by French Press. After 20,000 g centrifugation for 1 hr at 4°C, the supernatant was incubated with Ni-NTA resin. After extensive wash with lysis buffer, His-Ub was eluted from Ni-NTA resin with 50 mM Tris-HCl, pH 7.5, 500 mM NaCl, 300 mM imidazole, 5% glycerol. Fractions containing His-Ub were pooled and concentrated, followed by gel filtration on a Superdex 200 10/300 GL column (GE Healthcare, Chicago, USA) in gel filtration buffer (50 mM Tris-HCl, pH7.5, 10 mM NaCl, 1 mM DTT). Fractions containing His-Ub were pooled and concentrated by a 3 KDa MWCO Ultra centrifugal filter (Amicon), flash frozen with liquid nitrogen, and stored at −80°C before use.
# Human ORFs encoding UBA1 (residues 49–1058, NP_003325.2), UBE2G1 (NP_003333.1), UBE2D3 (NP_003331.1), CUL4A (NP_001008895.1) were cloned into pPB-CAG-1xFLAG vector. ORF encoding human RBX1 (NP_055063.1) was cloned into pPB-CAG vector without a tag. […]
# T1 sequence (Q9NYV4 1-1481 isoform Q9NYV4-2): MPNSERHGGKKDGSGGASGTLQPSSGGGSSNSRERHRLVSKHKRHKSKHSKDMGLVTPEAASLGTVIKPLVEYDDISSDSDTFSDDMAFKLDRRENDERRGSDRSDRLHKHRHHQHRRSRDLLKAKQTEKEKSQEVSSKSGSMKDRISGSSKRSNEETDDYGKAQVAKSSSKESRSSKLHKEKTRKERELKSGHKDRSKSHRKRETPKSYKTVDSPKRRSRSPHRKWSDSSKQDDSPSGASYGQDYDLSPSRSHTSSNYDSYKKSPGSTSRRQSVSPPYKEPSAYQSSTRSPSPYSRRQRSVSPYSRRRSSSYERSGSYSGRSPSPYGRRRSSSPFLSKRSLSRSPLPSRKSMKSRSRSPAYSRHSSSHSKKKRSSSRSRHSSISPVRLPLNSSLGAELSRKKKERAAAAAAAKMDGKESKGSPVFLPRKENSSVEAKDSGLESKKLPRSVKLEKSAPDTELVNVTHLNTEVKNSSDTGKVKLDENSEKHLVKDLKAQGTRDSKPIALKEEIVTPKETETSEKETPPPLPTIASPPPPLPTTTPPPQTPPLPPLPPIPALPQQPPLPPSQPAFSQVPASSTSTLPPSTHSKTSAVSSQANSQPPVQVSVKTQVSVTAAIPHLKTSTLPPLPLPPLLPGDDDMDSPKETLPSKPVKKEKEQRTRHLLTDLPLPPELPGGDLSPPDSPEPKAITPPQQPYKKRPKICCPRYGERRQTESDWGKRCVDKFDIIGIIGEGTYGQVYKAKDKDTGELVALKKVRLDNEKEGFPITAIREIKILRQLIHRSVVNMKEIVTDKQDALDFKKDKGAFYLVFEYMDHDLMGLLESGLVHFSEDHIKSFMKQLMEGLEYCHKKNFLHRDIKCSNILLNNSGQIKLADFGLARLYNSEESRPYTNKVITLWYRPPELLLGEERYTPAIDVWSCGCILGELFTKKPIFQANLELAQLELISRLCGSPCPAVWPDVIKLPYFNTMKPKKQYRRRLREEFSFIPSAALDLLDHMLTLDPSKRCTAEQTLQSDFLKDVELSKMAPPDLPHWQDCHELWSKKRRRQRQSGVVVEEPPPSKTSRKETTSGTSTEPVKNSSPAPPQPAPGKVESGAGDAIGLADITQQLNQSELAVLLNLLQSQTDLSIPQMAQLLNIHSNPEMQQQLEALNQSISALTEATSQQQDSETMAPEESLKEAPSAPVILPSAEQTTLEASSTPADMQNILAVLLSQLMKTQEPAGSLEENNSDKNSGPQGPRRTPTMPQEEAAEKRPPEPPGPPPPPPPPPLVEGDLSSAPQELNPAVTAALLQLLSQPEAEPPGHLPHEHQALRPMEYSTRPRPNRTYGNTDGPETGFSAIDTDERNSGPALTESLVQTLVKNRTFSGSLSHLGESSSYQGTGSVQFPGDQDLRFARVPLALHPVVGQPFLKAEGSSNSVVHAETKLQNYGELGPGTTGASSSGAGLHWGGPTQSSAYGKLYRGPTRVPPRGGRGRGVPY
# T1 sequence (O75909 whole entry partner): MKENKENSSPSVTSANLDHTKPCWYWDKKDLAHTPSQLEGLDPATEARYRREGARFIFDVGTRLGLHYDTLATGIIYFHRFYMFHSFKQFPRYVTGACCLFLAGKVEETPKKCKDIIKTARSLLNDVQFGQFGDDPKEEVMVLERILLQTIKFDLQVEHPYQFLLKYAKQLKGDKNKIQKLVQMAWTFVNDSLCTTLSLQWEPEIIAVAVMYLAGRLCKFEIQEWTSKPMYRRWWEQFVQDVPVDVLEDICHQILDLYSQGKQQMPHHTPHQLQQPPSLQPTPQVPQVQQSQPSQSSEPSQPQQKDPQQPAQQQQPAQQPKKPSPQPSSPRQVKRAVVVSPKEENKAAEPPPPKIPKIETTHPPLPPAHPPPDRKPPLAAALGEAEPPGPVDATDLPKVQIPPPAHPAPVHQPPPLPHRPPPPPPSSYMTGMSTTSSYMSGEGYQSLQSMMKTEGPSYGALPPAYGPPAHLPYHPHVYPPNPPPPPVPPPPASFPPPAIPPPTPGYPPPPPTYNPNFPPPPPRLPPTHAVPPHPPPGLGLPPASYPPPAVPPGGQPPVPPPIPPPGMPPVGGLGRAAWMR
# T1 sequence (Q16531 whole entry partner): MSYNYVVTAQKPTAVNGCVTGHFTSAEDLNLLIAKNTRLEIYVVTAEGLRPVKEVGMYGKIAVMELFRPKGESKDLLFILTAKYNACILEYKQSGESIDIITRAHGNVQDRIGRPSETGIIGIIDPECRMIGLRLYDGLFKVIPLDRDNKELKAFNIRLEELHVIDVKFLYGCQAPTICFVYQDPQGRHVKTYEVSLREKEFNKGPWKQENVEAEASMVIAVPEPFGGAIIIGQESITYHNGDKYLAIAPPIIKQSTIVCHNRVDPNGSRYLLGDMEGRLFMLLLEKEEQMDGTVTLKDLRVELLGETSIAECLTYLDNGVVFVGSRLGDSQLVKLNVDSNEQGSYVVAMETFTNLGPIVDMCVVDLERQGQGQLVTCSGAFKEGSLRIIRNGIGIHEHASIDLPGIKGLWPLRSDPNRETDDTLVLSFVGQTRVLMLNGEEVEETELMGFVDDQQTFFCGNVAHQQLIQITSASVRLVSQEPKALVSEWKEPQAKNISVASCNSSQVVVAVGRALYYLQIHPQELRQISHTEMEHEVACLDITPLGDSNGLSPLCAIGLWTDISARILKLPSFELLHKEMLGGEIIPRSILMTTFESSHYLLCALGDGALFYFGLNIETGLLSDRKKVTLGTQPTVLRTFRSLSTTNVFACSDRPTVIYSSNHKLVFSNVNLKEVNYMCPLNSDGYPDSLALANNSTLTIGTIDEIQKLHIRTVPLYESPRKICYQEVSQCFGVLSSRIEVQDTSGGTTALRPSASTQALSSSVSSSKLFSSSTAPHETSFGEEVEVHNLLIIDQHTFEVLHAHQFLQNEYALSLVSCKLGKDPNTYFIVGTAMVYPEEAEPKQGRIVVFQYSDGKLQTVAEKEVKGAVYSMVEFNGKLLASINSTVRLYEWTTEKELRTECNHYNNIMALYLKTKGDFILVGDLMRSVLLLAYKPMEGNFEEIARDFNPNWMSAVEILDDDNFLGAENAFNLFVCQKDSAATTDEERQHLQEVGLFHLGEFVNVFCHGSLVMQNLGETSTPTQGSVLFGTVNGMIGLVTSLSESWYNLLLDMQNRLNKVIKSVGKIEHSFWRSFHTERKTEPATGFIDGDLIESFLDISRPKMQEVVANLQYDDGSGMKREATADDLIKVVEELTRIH
# T1 sequence (Q13619 whole entry partner): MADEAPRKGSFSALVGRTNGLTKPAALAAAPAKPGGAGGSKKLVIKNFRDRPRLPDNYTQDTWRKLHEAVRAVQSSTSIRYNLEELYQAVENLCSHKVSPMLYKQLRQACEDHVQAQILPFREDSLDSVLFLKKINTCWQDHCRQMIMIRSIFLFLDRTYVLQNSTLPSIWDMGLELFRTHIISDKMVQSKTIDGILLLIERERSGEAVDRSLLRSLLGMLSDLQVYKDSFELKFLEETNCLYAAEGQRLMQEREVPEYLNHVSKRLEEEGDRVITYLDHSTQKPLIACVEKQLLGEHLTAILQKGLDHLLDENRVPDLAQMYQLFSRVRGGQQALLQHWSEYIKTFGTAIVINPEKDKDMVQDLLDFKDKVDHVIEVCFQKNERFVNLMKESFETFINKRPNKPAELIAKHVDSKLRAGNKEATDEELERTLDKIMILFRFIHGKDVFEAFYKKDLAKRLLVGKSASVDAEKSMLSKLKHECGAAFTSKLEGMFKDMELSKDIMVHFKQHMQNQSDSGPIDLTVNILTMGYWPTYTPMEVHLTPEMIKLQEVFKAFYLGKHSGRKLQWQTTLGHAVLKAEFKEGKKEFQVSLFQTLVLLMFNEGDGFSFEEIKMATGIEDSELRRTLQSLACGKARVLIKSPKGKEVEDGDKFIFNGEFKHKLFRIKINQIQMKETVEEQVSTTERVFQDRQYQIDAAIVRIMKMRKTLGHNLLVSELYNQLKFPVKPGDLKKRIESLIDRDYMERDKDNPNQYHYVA
# T1 sequence (P62877 whole entry partner): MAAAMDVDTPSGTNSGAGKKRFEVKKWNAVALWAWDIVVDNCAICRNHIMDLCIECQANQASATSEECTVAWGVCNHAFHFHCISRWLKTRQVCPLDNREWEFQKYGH
smiles,measurement,value
"Cc1cccc(Nc2nc(CC(=O)Nc3ncc(C)s3)cs2)n1 [HQ461, 2-(2-((6-methylpyridin-2-yl)amino)thiazol-4-yl)-N-(5-methylthiazol-2-yl)acetamide]",in vitro polyubiquitination,polyubiquitination of CCNK but not CDK12
